{"source": "patent US12004506B2", "about": "“Pharmaceutical composition comprising a cyclic peptide of formula X1-[sequence]-X2 and use for extracorporeal lung treatment” (priority 2013, dated 2024)", "key": {"[1]": {"test": "Particle size of aerosol droplets after nebulizing the aqueous solution", "assay_type": "physicochemical", "description": "With the aid of nebulizers the aqueous solution of a cyclised compound of formula I, namely that of the amino acid sequence SEQ ID NO: 1 was transferred into an aerosol. The particle size of the droplets was measured after subjecting the aqueous solution to 3 different nebulizers and is set out in Table II below: […]"}, "[2]": {"tested_on": "non-ischemic pig donor lung", "test": "Ex vivo lung perfusion (EVLP) of non-ischemic pig donor lungs, inhalative application", "details": "inhalative application, 1 mg/kg, hourly T1 to T4, vs WFI control", "description": "Brain death pigs were turned into dorsal position, and a longitudinal sternotomy was performed. The pericardium and both pleural cavities were opened. […] An inflow catheter was placed in the pulmonary artery through a purse-string on the right ventricular outflow tract.\nThe lungs (non-ischemic) were then preserved with an ante grade flush of cold isotonic preservation solution (50 ml per kg body weigh of pig, containing potassium ions, sodium ions, magnesium ions, calcium ions, chloride ions, dextran, glucose, buffering ions) through the inflow catheter. Incision of the left auricular appendix provides outflow. The lungs were ventilated during this period with 50% oxygen, and iced slush were placed in both pleural cavities and mediastinum.\nThe explanation technique was en bloc harvesting with heart and esophagus according to the following steps: • a) Dissection of soft tissue bridges to the thoracic cavity on both sides of the trachea. • b) Transsection of both pulmonal ligaments (very deep, difficult exposure), then of the VCI, the lower thoracic descendent aorta and the esophagus, respectively. • c) Blunt separation from remaining mediastinal adhesions. • d) Complete inflation of the donor lung prior of tracheal closure with a stapler.\nAfter explantation, the lungs were wrapped in gauze, placed in an insulated ice bag filled with low-potassium dextran extracellular solution, and stored at 4° C. for 18 to 24 hours. A temperature probe was submerged in the container, which will be placed in a refrigerator.\nFor ex-vivo lung conditioning, the EVLP technique ([…]) was used. In the EVLP technique, donor lungs are placed into a circuit composed of a pump, ventilator and filters. EVLP technique, the temperature may increased up to 37 °C. In the EVLP, a ventilator is used to deliver oxygen to the lungs. The pump is used to perfuse the lungs with an extracellular solution containing human albumin and nutrition. During EVLP, the lung function can be evaluated regularly on key indicators. […]"}, "transplanted pig lung": {"tested_on": "transplanted pig lung", "test": "Re-implantation of pre-treated non-ischemic donor lungs in recipient pigs", "assay_type": "in vivo", "details": "nebulisation 1 mg/kg, 24 h evaluation", "description": "After the pre-treatment of the non-ischemic donor lungs with peptide SEQ ID NO:1 from Example 4 the lungs were re-implanted in recipient pigs. Shortly after reperfusion of the transplanted lungs peptide SEQ ID NO: 1 was administered.\nA left thoracotomy through the sixth inter costal space was done, the left hilus was prepared. The hemiazygos vein on the left side was dissected and transected, as it is hiding both the left pulmonary artery and the left atrium. After dissection the ligated ends can be pulled to facilitate exposure of the OP field. The […] and bronchus are encircled. Left pneumonectomy was performed using vascular clamps. Immediately before the implantation single intravenous dose of methylprednisolone (500-1000 mg) and a low dose of heparin (100 IU/kg, see above) was applied. The donor lung was then reimplanted using 4-0 PDS for the bronchial anastomosis and 5-0 Prolene for the pulmonary artery and the left atrial anastomosis. In pigs, there is an additional lobe (caval lobe) of the right lung with 2 veins into the left atrium (1 separate vein for the caval lobe, 1 additional vein arising from the trunk of the main right lower lobe vein). […]\nThe left donor lung was evaluated for an additional period of 24 hours.\nThe following parameters have been assessed:\nFunctional assessment of graft function by oxygenation parameters: Arterial blood gas analyses as well as selective blood gas analysis from the left pulmonary veins were performed every 2 hours for 24 h. The respiratory index was calculated: RI=PaO2/FiO2.\nLung compliance was calculated from the pressure and volume data of the anesthesia ventilator. […]\nFunctional assessment of graft function by hemodynamic measurements (on-line measurements) and pulmonary vascular resistance (PVR): Hemodynamics, including pulmonary artery pressure (PAP) was measured continuously. Cardiac output (CO) was measured by using a Swan-Ganz catheter. Pulmonary vascular resistance is calculated by the following formula: PVR (dynes·[…]·cm−5)=(PAP−LAP)×80/CO."}, "[3]": {"tested_on": "sodium ion current in A549 cells (deglycosylated cell surface)", "test": "Patch clamp assay, whole cell mode, on A549 cells deglycosylated with PNGase F", "assay_type": "cell-based, human", "details": "240 nM peptide, Eh -100 mV"}}}
{"smiles": "C[C@@H]1NC(=O)CNC(=O)[C@H](CCC(=O)O)NC(=O)[C@@H]2CCCN2C(=O)[C@H]([C@@H](C)O)NC(=O)[C@H](CCC(=O)O)NC(=O)[C@H](CCCNC(=N)N)NC(=O)[C@H](CCC(N)=O)NC(=O)CNC(=O)[C@@H](N)CSSC[C@@H](C(=O)O)NC(=O)[C@H](Cc2ccc(O)cc2)NC(=O)[C@H](Cc2c[nH]c3ccccc23)NC(=O)[C@@H]2CCCN2C(=O)[C@H](CCCCN)NC(=O)[C@H](C)NC(=O)[C@H](CCC(=O)O)NC1=O", "note": "[SEQ ID NO: 1]", "values": [{"measurement": "Amount of particles with Ø ≤ 5 μm", "setting": "[1]; nebulizer Type A", "value": 50, "unit": "%"}, {"measurement": "Median particle diameter", "setting": "[1]; nebulizer Type A", "value": 4.7, "unit": "μm"}, {"measurement": "Amount of particles with Ø ≤ 5 μm", "setting": "[1]; nebulizer Type B", "value": 70, "unit": "%"}, {"measurement": "Median particle diameter", "setting": "[1]; nebulizer Type B", "value": 3.3, "unit": "μm"}, {"measurement": "Amount of particles with Ø ≤ 5 μm", "setting": "[1]; nebulizer Type C", "value": 65, "unit": "%"}, {"measurement": "Median particle diameter", "setting": "[1]; nebulizer Type C", "value": 3.7, "unit": "μm"}, {"measurement": "dynamic lung compliance", "setting": "[2]; FIG. 2A", "value": "improved"}, {"measurement": "arterio-venous pO2 difference ΔpO2", "setting": "[2]; FIG. 2B", "value": "improved"}, {"measurement": "development of lung oedema", "setting": "transplanted pig lung", "value": "reduced"}, {"measurement": "initial graft function and gas exchange", "setting": "transplanted pig lung", "value": "improved"}, {"measurement": "rate of ischemia reperfusion injury induced malfunction of the transplanted lung", "setting": "transplanted pig lung", "value": "reduced"}, {"measurement": "Whole cell current, no pre-treatment with PNGase F", "setting": "[3]", "value": "1073.3 ± 15.1", "unit": "pA"}]}
